# From patent US20220017566A1, “TERPINOID DERIVATIVES AND USES THEREOF” (SICHUAN HAISCO PHARMACEUTICAL CO., LTD., priority 2018, published 2022)
# Like-named read-outs stand apart in the source and are kept apart here.
# Key:
# [1] = tested on: IFNγ-induced NO production in Raw 264.7 cells; test: Nitric oxide assay: suppression of IFNγ-induced NO production (Griess nitrite, adjusted to live cell numbers); type: cell-based; details: Mus musculus, RAW264.7, 2 h pretreatment, IFNγ 10 ng/ml for 24 hours
# In short: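 Raw 264.7 cells in DMEM + 2% FBS were pretreated 2 h with compound (10-point, 1:4 dilution from 100 nM), then stimulated with 10 ng/ml mouse IFNγ for 24 h. Media nitrite was read by Griess and normalised to CellTiter-Glo viability. IC50 from four-parameter fit of % inhibition.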
# NQO1 = NQO1 activity assay in Raw264.7 cell lysates; type: cell-based; details: Mus musculus; Raw264.7 cells, 48 hours treatment
# Protocol: Raw264.7 cells were seeded in DMEM+10% FBS in 96-well plates at a density of 10,000 cells per well. 6 hours after plating, cells were treated with DMSO or test compounds (top dose 100 nM, 1:4 serial dilution, 8-point) for 48 hours. NQO1 activity was then detected in cell lysates using NQO1 activity assay kit (Abeam, Cat#ab184867). NQO1 activity was then plotted against compound concentration, and EC50 values were calculated using four-parameter algorithm in Graphpad Prism.
# CYP1A2 = target: T1, CYP1A2 (Homo sapiens, UniProt P05177); test: CYP450 enzyme inhibition in liver microsomes (cocktail probe incubation); type: in vitro ADME; details: species not given, 0.05-50 μM tested
# T1 construct: studied in liver microsomes of CD-1 mouse, Sprague Dawley rat, Beagle dog, cynomolgus monkey, and human; from tissue; host or cells: liver microsomes
# T1 sequence (P05177 1-516): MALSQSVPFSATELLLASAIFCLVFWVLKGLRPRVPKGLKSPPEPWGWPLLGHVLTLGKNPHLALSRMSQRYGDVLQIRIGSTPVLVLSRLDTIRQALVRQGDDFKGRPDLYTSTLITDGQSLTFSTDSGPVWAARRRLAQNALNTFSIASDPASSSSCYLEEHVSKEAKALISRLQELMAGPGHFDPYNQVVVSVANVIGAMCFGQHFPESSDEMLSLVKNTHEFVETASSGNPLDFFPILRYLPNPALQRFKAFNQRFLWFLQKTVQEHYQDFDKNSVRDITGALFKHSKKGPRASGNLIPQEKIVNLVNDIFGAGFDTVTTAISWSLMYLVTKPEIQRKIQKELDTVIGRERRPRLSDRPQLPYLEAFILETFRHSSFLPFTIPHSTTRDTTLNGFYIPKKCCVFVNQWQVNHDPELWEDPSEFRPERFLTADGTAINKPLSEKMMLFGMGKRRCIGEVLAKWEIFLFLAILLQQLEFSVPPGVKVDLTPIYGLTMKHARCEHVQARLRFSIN
# In short: (§1)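 Liver microsomes (CD-1 mouse, SD rat, Beagle dog, cynomolgus monkey, human) incubated with a cocktail of CYP-specific probe substrates. Test compounds at seven concentrations (0.05, 0.15, 0.5, 1.5, 5, 15, 50 μM). Known inhibitors included as positive controls at a single concentration above their IC50.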
# CYP2C19 = target: T2, CYP2C19 (Homo sapiens, UniProt P33261); test: as above; type: in vitro ADME; details: species not given, 0.05-50 μM tested
# T2 construct: studied in liver microsomes of CD-1 mouse, Sprague Dawley rat, Beagle dog, cynomolgus monkey, and human; from tissue; host or cells: liver microsomes
# In short: as §1
# CYP2C9 = target: T3, CYP2C9 (Homo sapiens, UniProt P11712); test: as above; type: in vitro ADME; details: species not given, 0.05-50 μM tested
# T3 construct: studied in liver microsomes of CD-1 mouse, Sprague Dawley rat, Beagle dog, cynomolgus monkey, and human; from tissue; host or cells: liver microsomes
# In short: as §1
# CYP2D6 = target: T4, CYP2D6 (Homo sapiens, UniProt P10635); test: as above; type: in vitro ADME; details: species not given, 0.05-50 μM tested
# T4 construct: studied in liver microsomes of CD-1 mouse, Sprague Dawley rat, Beagle dog, cynomolgus monkey, and human; from tissue; host or cells: liver microsomes
# In short: as §1
# CYP3A4 = target: T5, CYP3A4 (Homo sapiens, UniProt P08684); test: as above; type: in vitro ADME; details: species not given, 0.05-50 μM tested
# T5 construct: studied in liver microsomes of CD-1 mouse, Sprague Dawley rat, Beagle dog, cynomolgus monkey, and human; from tissue; host or cells: liver microsomes
# In short: as §1
# [2] = Metabolic stability in human liver microsomes; type: in vitro ADME
# Protocol: (§2) The metabolic stability of test compounds was examined in CD-1 mouse, Sprague Dawley rat, Beagle dog, cynomolgus monkey, and human liver microsomes. Test compound (final concentration 1 μM) was mixed with diluted liver microsomes from each of the 5 species and a small aliquot was taken at 0, 5, 10, 20, 30, and 60 minutes for LC/MS/MS analysis. Intrinsic clearance and half-life were calculated.
# [3] = Metabolic stability in rat liver microsomes; type: in vitro ADME; details: Sprague Dawley
# Protocol: as §2
# [4] = Metabolic stability in mouse liver microsomes; type: in vitro ADME, CD-1 mouse; details: CD-1
# Protocol: as §2
# [5] = Metabolic stability in dog liver microsomes; type: in vitro ADME; details: Beagle
# Protocol: as §2
# [6] = Metabolic stability in monkey liver microsomes; type: in vitro ADME, cynomolgus monkey
# Protocol: as §2
# [7] = Pharmacokinetic studies in Sprague Dawley rats (oral gavage and IV); type: in vivo; details: rat, male SD rats, plasma; for AUC(0-t): read-out: AUC0-24 h
# In short: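 Male SD rats, fasted overnight, dosed 5 mg/kg oral gavage in 0.5% methylcellulose or 1 mg/kg IV in 5% DMSO/5% Solutol/90% saline, 3 per group. Plasma sampled predose and 0.5-24 h postdose, LC/MS/MS quantified; PK parameters from concentration-time data.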
# T3 sequence (P11712 whole entry): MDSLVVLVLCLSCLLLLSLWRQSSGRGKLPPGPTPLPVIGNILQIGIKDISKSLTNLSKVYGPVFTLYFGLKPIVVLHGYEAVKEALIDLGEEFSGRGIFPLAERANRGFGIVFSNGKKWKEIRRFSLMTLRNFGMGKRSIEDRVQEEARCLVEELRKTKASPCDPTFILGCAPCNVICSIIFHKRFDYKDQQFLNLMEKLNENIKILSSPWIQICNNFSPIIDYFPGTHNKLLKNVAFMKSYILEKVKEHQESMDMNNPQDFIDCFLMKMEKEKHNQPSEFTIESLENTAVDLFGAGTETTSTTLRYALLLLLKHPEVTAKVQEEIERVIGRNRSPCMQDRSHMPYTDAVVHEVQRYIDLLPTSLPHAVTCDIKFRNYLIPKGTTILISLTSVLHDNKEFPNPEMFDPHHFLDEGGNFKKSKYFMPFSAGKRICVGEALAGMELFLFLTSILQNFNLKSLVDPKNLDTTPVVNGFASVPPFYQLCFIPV
# T4 sequence (P10635 whole entry): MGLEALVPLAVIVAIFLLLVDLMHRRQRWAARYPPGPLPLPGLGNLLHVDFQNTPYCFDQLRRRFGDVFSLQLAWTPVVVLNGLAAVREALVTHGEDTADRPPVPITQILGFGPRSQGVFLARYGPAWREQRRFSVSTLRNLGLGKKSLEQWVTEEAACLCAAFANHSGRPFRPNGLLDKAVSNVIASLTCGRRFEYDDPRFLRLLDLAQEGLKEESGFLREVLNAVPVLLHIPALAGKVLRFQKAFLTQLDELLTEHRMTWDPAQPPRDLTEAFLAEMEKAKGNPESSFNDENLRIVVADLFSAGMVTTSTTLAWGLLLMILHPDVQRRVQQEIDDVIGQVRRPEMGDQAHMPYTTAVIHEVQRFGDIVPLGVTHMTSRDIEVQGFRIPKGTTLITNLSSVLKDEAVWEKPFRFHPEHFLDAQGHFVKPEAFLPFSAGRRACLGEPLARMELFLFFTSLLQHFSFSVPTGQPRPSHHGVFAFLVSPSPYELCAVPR
# T2 sequence (P33261 whole entry): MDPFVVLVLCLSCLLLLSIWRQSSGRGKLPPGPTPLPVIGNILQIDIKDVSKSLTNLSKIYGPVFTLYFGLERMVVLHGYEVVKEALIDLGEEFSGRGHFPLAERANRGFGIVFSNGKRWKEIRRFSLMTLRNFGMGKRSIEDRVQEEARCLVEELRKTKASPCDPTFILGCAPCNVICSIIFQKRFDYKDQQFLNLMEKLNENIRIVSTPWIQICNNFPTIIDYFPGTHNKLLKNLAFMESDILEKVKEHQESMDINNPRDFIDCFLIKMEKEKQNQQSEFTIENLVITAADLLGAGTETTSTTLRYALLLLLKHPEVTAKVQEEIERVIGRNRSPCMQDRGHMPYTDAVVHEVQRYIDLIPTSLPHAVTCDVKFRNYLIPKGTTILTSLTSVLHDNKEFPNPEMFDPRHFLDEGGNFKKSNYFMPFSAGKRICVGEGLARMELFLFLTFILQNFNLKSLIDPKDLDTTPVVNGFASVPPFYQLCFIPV
# T5 sequence (P08684 whole entry): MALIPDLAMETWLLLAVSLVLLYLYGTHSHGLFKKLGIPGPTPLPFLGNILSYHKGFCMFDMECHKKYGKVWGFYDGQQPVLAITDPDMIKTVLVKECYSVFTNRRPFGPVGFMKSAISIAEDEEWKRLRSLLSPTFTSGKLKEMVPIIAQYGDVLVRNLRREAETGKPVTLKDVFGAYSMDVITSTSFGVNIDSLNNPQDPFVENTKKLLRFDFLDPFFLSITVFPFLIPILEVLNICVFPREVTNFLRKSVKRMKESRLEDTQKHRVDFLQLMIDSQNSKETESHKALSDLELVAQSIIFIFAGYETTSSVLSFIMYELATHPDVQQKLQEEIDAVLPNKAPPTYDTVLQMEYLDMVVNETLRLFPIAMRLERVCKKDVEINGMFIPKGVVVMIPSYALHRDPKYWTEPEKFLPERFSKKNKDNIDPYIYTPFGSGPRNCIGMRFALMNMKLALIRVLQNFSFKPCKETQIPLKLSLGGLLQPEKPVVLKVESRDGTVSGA
structure (smiles),measurement,setting,value
"CC(=NC#N)NC[C@]12CCC(C)(C)C[C@H]1[C@H]1C(=O)C=C3[C@@]4(C)C=C(C#N)C(=O)C(C)(C)[C@@H]4CC[C@@]3(C)[C@]1(C)CC2 [Example 4, N′-cyano-N-(((4aS,6aR,6bS,8aR,12aS,14aR,14bS)-11-cyano-2,2,6a,6b,9,9,12a-heptamethyl-10,14-dioxo-1,3,4,5,6,6a,6b,7,8,8a,9,10,12a,14,14a,14b-hexadecahydropicen-4a(2H)-yl)methyl)acetimidamide]",IC50,[1],< 10 nM
same,EC50,NQO1,10 to 100 nM
same,IC50,CYP1A2,> 50000 nM
same,IC50,CYP2C19,4500 nM
same,IC50,CYP2C9,1600 nM
same,IC50,CYP2D6,2200 nM
same,IC50,CYP3A4,3300 nM
same,CLint scaled at 1 μM,[2],34.2 mL/min/kg
same,half-life at 1 μM,[2],36.5 min
same,CLint scaled at 1 μM,[3],38.8 mL/min/kg
same,half-life at 1 μM,[3],64.3 min
same,CLint scaled at 1 μM,[4],147 mL/min/kg
same,half-life at 1 μM,[4],37.3 min
same,CLint scaled at 1 μM,[5],101 mL/min/kg
same,half-life at 1 μM,[5],19.7 min
same,CLint scaled at 1 μM,[6],104 mL/min/kg
same,half-life at 1 μM,[6],18.1 min
same,C0,[7]; IV (1 mg/kg),747 ng/mL
same,clearance,[7]; IV (1 mg/kg),50.9 mL/min/kg
same,half-life,[7]; IV (1 mg/kg),192 min
same,AUC(0-t),[7]; IV (1 mg/kg),292 ng·h/mL
same,Cmax,[7]; Oral (5 mg/kg),51 ng/mL
same,half-life,[7]; Oral (5 mg/kg),174 min
same,AUC(0-t),[7]; Oral (5 mg/kg),214 ng·h/mL
same,bioavailability,"[7]; oral 5 mg/kg vs IV 1 mg/kg, read-out: Bioavailibility F %",14.6%
